Test results as given in PubChem BioAssay AID179 (DTP/NCI, 2004).
The source made the active and inactive calls.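 Rule for the calls: active = compounds giving half or more protection of infected cells from virus-caused growth loss, again on retest; inactive = the rest.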 Where a SMILES comes first, the peptide text is derived from it. The star is where a group is joined. Trt = c1ccc(C(c2ccccc2)(c2ccccc2)*)cc1; Benzhydryl = c1ccc(C(c2ccccc2)*)cc1; Cbz = O=C(OCc1ccccc1)*; OtBu = CC(C)(C)O*

System: CEM cells HIV-1 protection, formazan growth assay
Test: NCI AIDS Antiviral Assay
Settings: for IC50: measured here: growth of uninfected CEM cells
Procedure, shortened: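 CEM (human) cells, HIV-1 infected vs uninfected, 5-point dosing, formazan growth read-out. Retest threshold 50% protection.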

Row | SMILES | EC50 [µM] | IC50 [µM] | outcome
1 | COc1cc(OC)c(/C=N/N=C(\N)NO)c(OC)c1 | > 200 | > 200 | –
2 | CCCCCCCSc1nc2c(C(=O)OCC)ncn2c2ccccc12 | > 19.5 | > 19.5 | –
3 | O=C1C2=C(Nc3ccccc3N2)OC1c1ccncc1 (centres undefined) | > 38 | > 38 | –
4 | CN=CN(C)c1c2ccccc2nc2ccccc12 | > 200 | > 200 | –
5 | O=C(OCc1ccccc1)[C@H]1O[C@@H]1C(=O)OCc1ccccc1 | > 200 | 25.7 | –
6 | O=C1CC(=O)N2C(=O)CC(=O)N12 | > 537 | > 537 | –
7 | CC(C)CCCC(C)C1CCC2C3CC[C@H]4C[C@@H](NC(=O)C=C(c5cc(Cl)c(O)c(C(=O)O)c5)c5cc(Cl)c(O)c(C(=O)O)c5)CC[C@]4(C)C3CC[C@]12C (some centres undefined) | 56.2 | 97.7 | –
8 | COc1cc2c(c(OC)c1OC)C1=NNC(=O)C1(C)CC2 (centres undefined) | > 617 | 479 | –
9 | Cn1c2ccccc2c2nc3ccccc3c(Cl)c21 | > 200 | 135 | –
10 | CC1CCCCC12NC(=O)NC2=O (centres undefined) | > 200 | > 200 | –
11 | CCOC(=O)C(=[N+]=[N-])C(=O)CN1C(=O)C2CC(C)=C(C)CC2C1O (centres undefined) | > 389 | > 389 | –
12 | Nc1ccccc1C1=Nc2cncnc2NC1 | > 417 | 295 | –
13 | O=c1c(O)c(-c2ccc(Cl)cc2)oc2ccccc12 | > 200 | 4.07 | –
14 | O=c1[nH]nc2ccccc2c1Cc1ccccc1 | > 151 | > 151 | –
15 | COc1ccc(N=[N+]([O-])c2ccc(OC)cc2)cc1 | > 200 | > 200 | –
16 | CN(C)C1=NC(=O)C(c2ccccc2)O1 (centres undefined) | > 200 | > 200 | –
17 | CCC1(OC(C)=O)C(=O)OCc2c1cc1n(c2=O)Cc2cc3ccccc3nc2-1 (centres undefined) | > 10 | 0.129 | –
18 | CN1CCC(O)(OC(=O)C(c2ccccc2)C2(O)CCCC2)CC1 (centres undefined) | > 200 | > 200 | –
19 | Cc1ccc(S(=O)(=O)OC(F)(F)C(F)(F)F)cc1 | > 234 | > 234 | –
20 | CC(C)(C)OC(=O)CNC(=O)C(Cc1ccccc1)NC(=O)C(CSC(c1ccccc1)(c1ccccc1)c1ccccc1)NC(=O)CNC(=O)C(Cc1ccccc1)NC(=O)CNC(=O)C(CSC(c1ccccc1)c1ccccc1)NC(=O)C(CSC(c1ccccc1)(c1ccccc1)c1ccccc1)NC(=O)OCc1ccccc1 (centres undefined) (Cbz-C(Trt)C(Benzhydryl)GFGC(Trt)FG-OtBu; configuration not given here) | > 8.32 | > 8.32 | –
21 | c1nn2cnnc2s1 | – | – | inactive

Row | SMILES | EC50 [µM] | IC50 [µM] | outcome
22 | CC(C#N)NCc1ccc(C(C)NC(C)C#N)cc1 (centres undefined) | > 200 | > 200 | –
23 | O=C1OC(c2ccccc2)(c2ccccc2)CC1CN1CCOCC1 (centres undefined) | > 57.5 | 12 | –
24 | Cc1ccc(C)n1-c1ccccc1C1C=Cn2c(=O)nnc3c(OC(C)C)c(OC(C)C)c(O)c1c32 (centres undefined) | > 200 | 25.7 | –
25 | O=C1/C(=C/c2ccc(OCc3ccccc3)cc2)CCC/C1=C\c1ccc(OCc2ccccc2)cc1 | > 2.95 | > 2.95 | –
26 | Cc1cccc2c1Sc1ccccc1C2NC(=O)CN(C)C (centres undefined) | > 417 | 102 | –
27 | CC1C2CC(CC(=O)N2)C1(C)C (centres undefined) | > 1480 | 759 | –
28 | Cc1ccccc1N(CCC#N)C1=NN(C(=O)CC(=O)Nc2ccccc2)C(c2ccccc2)C1 (centres undefined) | > 77.6 | > 77.6 | –
29 | O=C(Cc1ccccc1[N+](=O)[O-])C(CO)c1ccccc1[N+](=O)[O-] (centres undefined) | > 110 | > 110 | –
30 | [O-]/[N+]1=[N+](\[O-])c2ccccc2CCCc2ccccc21 | > 269 | > 269 | –
31 | COC(=O)C(N)CSc1ccc([N+](=O)[O-])cc1[N+](=O)[O-] (centres undefined) | > 741 | 115 | –
32 | N#C/C(=C\c1ccc(Cl)cc1)c1ccccc1[N+](=O)[O-] | > 200 | 120 | –
33 | CCOC(=O)c1nc(-c2ccccc2)c(-c2ccccc2)c(-c2ccccc2)c1C | > 5.13 | > 5.13 | –
34 | NC(N)=N/N=C/c1oc(-c2ccc(S(=O)(=O)O)o2)c(-c2ccc(S(=O)(=O)O)o2)c1[N+](=O)[O-] | > 513 | > 513 | –
35 | C/C(=C\C(=O)OCCCCCCCC(=O)NC1CCCNC1=O)C[C@@H]1OC[C@H](C/C=C/[C@@H](C)[C@H](C)O)[C@@H](O)[C@H]1O (some centres undefined) | – | – | inactive
36 | CCN1CCC(O)(c2ccc(Oc3ccc(C)cc3)cc2)C(C(=O)c2ccc(Oc3ccc(C)cc3)cc2)C1 (centres undefined) | > 200 | 3.8 | –
37 | NC(=O)C(O)C(O)C(N)=O (centres undefined) | > 457 | > 457 | –
38 | O=C(CCC(=O)Nc1ccc(Cl)cc1)CC(=O)c1ccc(F)cc1 | – | – | inactive
39 | O=C(NCCCl)Nc1ccccn1 | > 200 | > 200 | –
40 | Nc1ccccc1N1C(=O)C(Cl)=C(Cl)C1=O | – | – | inactive
41 | [C-]#[N+][C@@H]1C2C([C@@]3(C)CCC(C(C)(C)[N+]#[C-])O3)CC[C@](C)([N+]#[C-])[C@H]2CC[C@@]1(C)O (some centres undefined) | – | – | inactive
42 | Nc1ccc(S(=O)(=O)Nc2cnc3ccccc3n2)cc1 | > 316 | > 316 | –

Row | SMILES | EC50 [µM] | IC50 [µM] | outcome
43 | CCC[CH2][Sn]([CH2]CCC)([O]C(=O)c1cc(OC)c(OC)cc1OC)[O][Sn]([CH2]CCC)([CH2]CCC)[O]C(=O)c1cc(OC)c(OC)cc1OC | > 11 | 0.302 | –
44 | CC(C)(C)[Si](C)(C)OCC1OC(n2cnc3c(N)ncnc32)C(O[Si](C)(C)C(C)(C)C)C1O[Si](C)(C)C(C)(C)C (centres undefined) | > 200 | 44.7 | –
45 | CC(C)(C)C(C#N)(C#N)c1ccc(C(C#N)(C#N)C(C)(C)C)nn1 | – | – | inactive
46 | C=C[C@@](C)(/C=C/c1ccc(O)cc1)CCC=C(C)C | > 200 | 25.1 | –
47 | O=C(Nc1nc2ccccc2n1Cc1ccc(Cl)cc1)NC12CC3CC(CC(C3)C1)C2 | > 200 | > 200 | –
48 | O=C(Nc1nc2ncn(CCNCCn3cnc4nc(NC(=O)c5ccccc5)[nH]c(=O)c43)c2c(=O)[nH]1)c1ccccc1 | > 23.4 | > 23.4 | –
49 | NC(N)=NS(=O)(=O)c1ccc(NNC(=O)c2cccc3c(=O)c4ccccc4[nH]c23)cc1 | > 200 | 33.9 | –
50 | Cc1cc2c(cn1)C(=O)OCC2 | – | – | inactive
51 | O=S1(=O)C2CCCCC2(N2CCOCC2)C1c1ccccc1 (centres undefined) | > 407 | 45.7 | –
52 | CCOC(=O)C1=C(C)/C(=C\c2[nH]c(C)c(C(=O)OCC)c2C)N=C1C | > 200 | > 200 | –
53 | N#CC(C#N)=Cn1c(=S)[nH]c2ccc([N+](=O)[O-])cc21 | > 200 | 89.1 | –
54 | COc1cc(C2c3cc4c(cc3OC(Nc3ccccc3)C2C)OCO4)cc(OC)c1OC (centres undefined) | > 200 | 0.275 | –
55 | COC(=O)C1=C(C=O)C2C=CC1C2 (centres undefined) | – | – | inactive
56 | Clc1ccc2c(c1)Oc1ccccc1C=N2 | > 363 | 6.31 | –
57 | CN(C)c1ccc(/C=C(\NC(=O)c2ccccc2)C(=O)Nc2cccc(C(=O)NCCCO)c2)cc1 | > 200 | > 200 | –
58 | CCOC(=O)c1[nH]cc(C)c1-c1c[nH]c2ccccc12 | > 200 | 24.5 | –
59 | Nn1c(=S)[nH]n2cnnc12 | > 1580 | 186 | –
60 | Nc1ncnc2c1N=C(c1ccccc1)CC(c1ccccc1)N2 (centres undefined) | > 200 | > 200 | –
61 | CC(C)(C)[Si](C)(C)OCC1OC(n2ccc(=O)[nH]c2=O)C(O[Si](C)(C)C(C)(C)C)/C1=C/C#N (centres undefined) | > 200 | 8.13 | –
